Experimental data from US20240208954A1, “OXADIAZOLE COMPOUND, PREPARATION METHOD THEREFOR, PHARMACEUTICAL COMPOSITION AND USE THEREOF” (SHANGHAI INSTITUTE OF MATERIA MEDICA, CHINESE ACADEMY OF …, priority 2020, published 2024).
“And” between values parts separate entries of the source, which are not always exact repeats. Equal values may be shown once. Read-outs that look alike come from different tables or passages of the source.

Columns and labels:
[1] = Preliminary evaluation of pharmacokinetics in Beagle dogs; type: in vivo; conditions: for MRT inf: read-out: MRT0-∞; for Vd: read-out: Vss; for concentration at 0.083 h / concentration at 0.25 h / concentration at 0.5 h / concentration at 1 h / concentration at 2 h / concentration at 3 h / concentration at 4 h / concentration at 6 h / concentration at 8 h: read-out: Plasma drug concentration in Beagle dogs
[2] = Preliminary assessment of in vivo pharmacokinetics in rats; conditions: intragastric 20 mg/kg, individual animals 4-6, listed as DC411151
[3] = Beagle dogs, intragastric 3 mg/kg, individual animals 4-6, listed as DC411151
[4] = Beagle dogs, intravenous 0.5 mg/kg, individual animals 1-3, listed as DC411151, 0.5 mg/kg
[5] = Beagle, dog, plasma, po, 3 mg/kg, Beagle dogs, intragastric 3 mg/kg, individual animals 4-6
[6] = Beagle, dog, plasma, po, 3 mg/kg, Beagle dogs, intragastric 3 mg/kg, mean
[7] = beagle, dog, plasma, iv, 0.5 mg/kg, Beagle dogs, intravenous 0.5 mg/kg, individual animals 1-3
[8] = beagle, dog, plasma, iv, 0.5 mg/kg, Beagle dogs, intravenous 0.5 mg/kg, mean
[9] = dog, in vivo, Beagle dogs, intravenous 0.5 mg/kg, mean

## CC(C)Oc1ccc(-c2nc(-c3ccc(CN4CC(C(=O)O)C4)c4ccccc34)no2)cc1C#N.Cl [Compound A1, 1-((4-(5-(3-cyano-4-isopropoxyphenyl)-1,2,4-oxadiazol-3-yl)naphthalen-1-yl)methyl) azetidine-3-carboxylic acid hydrochloric acid]
[1]; [3]
  AUC0-t: 1170 ng·h/mL and 1550 ng·h/mL and 757 ng·h/mL
  AUC0-∞: 1200 ng·h/mL and 1570 ng·h/mL and 765 ng·h/mL
  Cmax: 318 ng/mL and 539 ng/mL and 242 ng/mL
  MRT0-∞: 2.58 h and 2.44 h
  Tmax: 1 h and 0.25 h and 2 h
  t1/2: 1.32 h and 1.06 h
[1]; Beagle dogs, intravenous 0.5 mg/kg
  plasma clearance as share of dog liver blood flow (about 31 mL/min/kg): 75.2%
[1]; [4]
  AUC0-t: 317 ng·h/mL and 382 ng·h/mL
  AUC0-∞: 319 ng·h/mL and 382 ng·h/mL
  CL: 26.1 mL/min/kg and 21.8 mL/min/kg
  MRT0-∞: 0.892 h and 0.952 h
  Vss: 1.40 L/kg and 1.24 L/kg
  t1/2: 1.05 h and 0.905 h
[1]; [5]
  half-life: 1.3 h
  MRT inf: 2.93 h
[1]; [6]
  AUC(0-inf): 1180 ng·h/mL
  half-life: 1.23 h
  MRT inf: 2.65 h
[1]; Beagle, dog, plasma, po, 3 mg/kg, Beagle dogs, intragastric 3 mg/kg, mean, read-out: Tmax
  Tmax: 1.08 h
[1]; [7]
  AUC(0-inf): 379 ng·h/mL
  clearance: 22 mL/min/kg
  half-life: 0.997 h
  MRT inf: 0.91 h
  Vd: 1.2 L/kg
[1]; beagle, dog, plasma, iv, 0.5 mg/kg, Beagle dogs, intravenous 0.5 mg/kg, individual animals 1-3, read-out: AUC0-t
  AUC0-t: 375 ng·h/mL
[1]; [8]
  AUC(0-inf): 360 ng·h/mL
  MRT inf: 0.918 h
[1]; beagle, dog, plasma, iv, 0.5 mg/kg, Beagle dogs, intravenous 0.5 mg/kg, mean, read-out: AUC0-t
  AUC0-t: 358 ng·h/mL
[1]; beagle, dog, plasma, iv, 0.5 mg/kg, intravenous 0.5 mg/kg, 0.083 h, individual animals 1-3
  concentration at 0.083 h: 604 ng/mL
[1]; beagle, dog, plasma, iv, 0.5 mg/kg, intravenous 0.5 mg/kg, 0.083 h, mean
  concentration at 0.083 h: 565 ng/mL
[1]; beagle, dog, plasma, iv, 0.5 mg/kg, intravenous 0.5 mg/kg, 0.25 h, individual animals 1-3
  concentration at 0.25 h: 237 ng/mL
[1]; beagle, dog, plasma, iv, 0.5 mg/kg, intravenous 0.5 mg/kg, 0.25 h, mean
  concentration at 0.25 h: 265 ng/mL
[1]; beagle, dog, plasma, iv, 0.5 mg/kg, intravenous 0.5 mg/kg, 0.5 h, individual animals 1-3
  concentration at 0.5 h: 190 ng/mL
[1]; beagle, dog, plasma, iv, 0.5 mg/kg, intravenous 0.5 mg/kg, 0.5 h, mean
  concentration at 0.5 h: 168 ng/mL
[1]; beagle, dog, plasma, iv, 0.5 mg/kg, intravenous 0.5 mg/kg, 1 h, individual animals 1-3
  concentration at 1 h: 98.8 ng/mL
[1]; beagle, dog, plasma, iv, 0.5 mg/kg, intravenous 0.5 mg/kg, 1 h, mean
  concentration at 1 h: 90.9 ng/mL
[1]; beagle, dog, plasma, iv, 0.5 mg/kg, intravenous 0.5 mg/kg, 2 h, individual animals 1-3
  concentration at 2 h: 27.5 ng/mL
[1]; beagle, dog, plasma, iv, 0.5 mg/kg, intravenous 0.5 mg/kg, 2 h, mean
  concentration at 2 h: 30.2 ng/mL
[1]; beagle, dog, plasma, iv, 0.5 mg/kg, intravenous 0.5 mg/kg, 3 h, individual animals 1-3
  concentration at 3 h: 20.4 ng/mL
[1]; beagle, dog, plasma, iv, 0.5 mg/kg, intravenous 0.5 mg/kg, 3 h, mean
  concentration at 3 h: 17.7 ng/mL
[1]; beagle, dog, plasma, iv, 0.5 mg/kg, intravenous 0.5 mg/kg, 4 h, individual animals 1-3
  concentration at 4 h: 9.68 ng/mL
[1]; beagle, dog, plasma, iv, 0.5 mg/kg, intravenous 0.5 mg/kg, 4 h, mean
  concentration at 4 h: 9.39 ng/mL
[1]; beagle, dog, plasma, iv, 0.5 mg/kg, intravenous 0.5 mg/kg, 6 h, individual animals 1-3
  concentration at 6 h: 2.51 ng/mL
[1]; beagle, dog, plasma, iv, 0.5 mg/kg, intravenous 0.5 mg/kg, 6 h, mean
  concentration at 6 h: 2.21 ng/mL
[1]; beagle, dog, plasma, iv, 0.5 mg/kg, intravenous 0.5 mg/kg, 8 h, mean
  concentration at 8 h: 0.773 ng/mL
[1]; beagle, dog, plasma, oral, 3 mg/kg, intragastric 3 mg/kg, 0.25 h, mean
  concentration at 0.25 h: 215 ng/mL
[1]; beagle, dog, plasma, oral, 3 mg/kg, intragastric 3 mg/kg, 0.5 h, mean
  concentration at 0.5 h: 262 ng/mL
[1]; beagle, dog, plasma, oral, 3 mg/kg, intragastric 3 mg/kg, 1 h, individual animals 4-6
  concentration at 1 h: 333 ng/mL
[1]; beagle, dog, plasma, oral, 3 mg/kg, intragastric 3 mg/kg, 1 h, mean
  concentration at 1 h: 281 ng/mL
[1]; beagle, dog, plasma, oral, 3 mg/kg, intragastric 3 mg/kg, 2 h, individual animals 4-6
  concentration at 2 h: 365 ng/mL
[1]; beagle, dog, plasma, oral, 3 mg/kg, intragastric 3 mg/kg, 2 h, mean
  concentration at 2 h: 291 ng/mL
[1]; beagle, dog, plasma, oral, 3 mg/kg, intragastric 3 mg/kg, 3 h, individual animals 4-6
  concentration at 3 h: 212 ng/mL
[1]; beagle, dog, plasma, oral, 3 mg/kg, intragastric 3 mg/kg, 3 h, mean
  concentration at 3 h: 208 ng/mL
[1]; beagle, dog, plasma, oral, 3 mg/kg, intragastric 3 mg/kg, 4 h, mean
  concentration at 4 h: 111 ng/mL
[1]; beagle, dog, plasma, oral, 3 mg/kg, intragastric 3 mg/kg, 6 h, mean
  concentration at 6 h: 59.4 ng/mL
[1]; beagle, dog, plasma, oral, 3 mg/kg, intragastric 3 mg/kg, 8 h, mean
  concentration at 8 h: 10.8 ng/mL
[1]; beagle, dog, plasma, po, 3 mg/kg, Beagle dogs, 3 mg/kg by gavage, range over animals, read-out: peak time Tmax
  Tmax: 0.25 to 2 h
[1]; dog, in vivo, po, Beagle dogs, intragastric 3 mg/kg, mean, read-out: AUC0-t
  AUC0-t: 1160 ng·h/mL
[1]; dog, in vivo, po, Beagle dogs, intragastric 3 mg/kg, mean, read-out: Cmax
  Cmax: 366 ng/mL
[1]; [9]
  clearance: 23.3 mL/min/kg
  half-life: 0.984 h
  Vd: 1.28 L/kg
[1]; dog, plasma, oral, Beagle dogs, 3 mg/kg by gavage vs 0.5 mg/kg intravenous, read-out: absolute bioavailability
  bioavailability: 54%
[1]; intragastric 3 mg/kg, 0.25 h, individual animals 4-6, listed as DC411151
  Plasma drug concentration in Beagle dogs: 539 ng/mL and 93.3 ng/mL and 11.2 ng/mL
[1]; intragastric 3 mg/kg, 0.5 h, individual animals 4-6, listed as DC411151
  Plasma drug concentration in Beagle dogs: 444 ng/mL and 153 ng/mL and 188 ng/mL
[1]; intragastric 3 mg/kg, 1 h, individual animals 4-6, listed as DC411151
  Plasma drug concentration in Beagle dogs: 193 ng/mL and 318 ng/mL
[1]; intragastric 3 mg/kg, 2 h, individual animals 4-6, listed as DC411151
  Plasma drug concentration in Beagle dogs: 242 ng/mL and 266 ng/mL
[1]; intragastric 3 mg/kg, 3 h, individual animals 4-6, listed as DC411151
  Plasma drug concentration in Beagle dogs: 143 ng/mL and 269 ng/mL
[1]; intragastric 3 mg/kg, 4 h, individual animals 4-6, listed as DC411151
  Plasma drug concentration in Beagle dogs: 151 ng/mL and 62.7 ng/mL and 118 ng/mL
[1]; intragastric 3 mg/kg, 6 h, individual animals 4-6, listed as DC411151
  Plasma drug concentration in Beagle dogs: 90.3 ng/mL and 24.0 ng/mL and 64.0 ng/mL
[1]; intragastric 3 mg/kg, 8 h, individual animals 4-6, listed as DC411151
  Plasma drug concentration in Beagle dogs: 12.0 ng/mL and 4.87 ng/mL and 15.6 ng/mL
[1]; intragastric 3 mg/kg, 24 h, individual animals 4-6
  Plasma drug concentration in Beagle dogs: BQL
[1]; intravenous 0.5 mg/kg, 0.083 h, individual animals 1-3, listed as DC411151, 0.5 mg/kg
  Plasma drug concentration in Beagle dogs: 554 ng/mL and 537 ng/mL
[1]; intravenous 0.5 mg/kg, 0.25 h, individual animals 1-3, listed as DC411151, 0.5 mg/kg
  Plasma drug concentration in Beagle dogs: 219 ng/mL and 340 ng/mL
[1]; intravenous 0.5 mg/kg, 0.5 h, individual animals 1-3, listed as DC411151, 0.5 mg/kg
  Plasma drug concentration in Beagle dogs: 138 ng/mL and 176 ng/mL
[1]; intravenous 0.5 mg/kg, 1 h, individual animals 1-3, listed as DC411151, 0.5 mg/kg
  Plasma drug concentration in Beagle dogs: 76.9 ng/mL and 97.1 ng/mL
[1]; intravenous 0.5 mg/kg, 2 h, individual animals 1-3, listed as DC411151, 0.5 mg/kg
  Plasma drug concentration in Beagle dogs: 27.8 ng/mL and 35.4 ng/mL
[1]; intravenous 0.5 mg/kg, 3 h, individual animals 1-3, listed as DC411151, 0.5 mg/kg
  Plasma drug concentration in Beagle dogs: 12.5 ng/mL and 20.3 ng/mL
[1]; intravenous 0.5 mg/kg, 4 h, individual animals 1-3, listed as DC411151, 0.5 mg/kg
  Plasma drug concentration in Beagle dogs: 7.88 ng/mL and 10.6 ng/mL
[1]; intravenous 0.5 mg/kg, 6 h, individual animals 1-3, listed as DC411151, 0.5 mg/kg
  Plasma drug concentration in Beagle dogs: 1.64 ng/mL and 2.47 ng/mL
[1]; intravenous 0.5 mg/kg, 8 h, individual animals 1-3, listed as DC411151, 0.5 mg/kg
  Plasma drug concentration in Beagle dogs: BQL and 1.05 ng/ml and 0.496 ng/ml
[2]; 0.25 h
  Plasma drug concentrations in rats: 1960 ng/mL and 696 ng/mL and 1150 ng/mL
[2]; 0.5 h
  Plasma drug concentrations in rats: 1570 ng/mL and 2600 ng/mL
[2]; 1 h
  Plasma drug concentrations in rats: 2070 ng/mL and 3070 ng/mL
[2]; 2 h
  Plasma drug concentrations in rats: 1220 ng/mL and 2150 ng/mL
